Measured values as given in patent US11357800B2, “Compositions for the treatment of neuropathic pain and sensitization of tumors to chemotherapies” (Henry Ford Health System, priority 2016, dated 2022).
Read-outs that look alike come from different tables or passages of the source.

Legend:
[1] = system: P-gp1, ABCC1, cleaved Caspase 3; conditions: tumor tissues
[2] = system: human colon carcinoma HCT-116; assay: Tumor cell viability, MTT assay, HCT-116; format: cell-based; conditions: read-out: IC50 cytotoxicity of oxaliplatin
Description: (§1) Tumor cell viability was measured using an MTT assay.

DRG neurons = assay: Axonal growth of DRG neurons in microfluidic device
Description: Primary rat DRG neurons were cultured in a microfluidic device that separates distal axons within the axonal compartment from their parent cell bodies within the cell body compartment as shown in FIG. 1 panel A. During 24 h culture, the neurons extended their axons to pass through a 450 nm long microgrooves, leading to only distal axons to grow into the axonal compartment (FIG. 1A). Oxaliplatin at various doses was applied into the axonal compartment (FIG. 1B).

[3] = system: miR-15b, miR-26a, miR-125b; conditions: tumor tissues
[4] = system: intraepidermal nerve fibers, sciatic nerve small fibers, DRG neurons; assay: Histology and TEM of footpad, sciatic nerve and DRG of tumor bearing mice; format: in vivo, mouse
Excerpt: Intraepidermal nerve fibers (IENFs) are sensory nerves that innervate dermis and epidermis. […] Calcitonin gene-related peptide (CGRP) DRG neurons are primary sensory neurons encoding heat and cold perception.

[5] = system: human ovarian carcinoma OVCAR3; assay: Tumor cell viability, MTT assay, OVCAR3; format: cell-based; conditions: read-out: IC50 cytotoxicity of oxaliplatin
Description: as §1

[6] = one randomized trial; cited from earlier work
[7] = in vivo; cited from earlier work
[8] = double immunofluorescent analysis

For `O=C1[O][Pt]2([NH][C@@H]3CCCC[C@H]3[NH]2)[O]C1=O` [Oxaliplatin], the “protein level of ABCC1” value [1] was “increased”, the “protein level of P-gp1” value [1] was “increased” and the IC50 ([2]; HCT-116, with CEC derived exosomes (3×10^2 exosomes)) was 6.9 ± 1 µM. For the same compound, the IC50 ([2]; HCT-116, without CEC derived exosomes) was 16.1 ± 2.1 µM, the axonal growth inhibited (DRG neurons; oxaliplatin 3.6 nM (reduced concentration, IRF of 2.5)) was 27% and the axonal growth suppressed (DRG neurons; oxaliplatin 9.1 nM (regular dose)) was 50%. The IC50 (DRG neurons; read-out: Half Maximal Inhibitory Concentration, IC50, growth of axons, oxaliplatin applied into the axonal compartment, 24 h) was 0.0091 µM, the miR-15b level [3] was “significantly reduced” and the miR-26a level [3] was “significantly reduced”. The “IEFN density assayed by the number of PGP9.5 positive fibers” value ([4]; dermal tissues of tumor bearing mice) was “significantly reduced”, the “diameters of CGRP positive DRG neurons” value [4, 8] was “selectively reduced” and the “diameters of NF200 positive DRG neurons” value [4, 8] was “reduced diameters of CGRP, but not NF200 positive neurons”. For the same compound, the IC50 ([5]; OVCAR3, with CEC derived exosomes (3×10^2 exosomes)) was 2.3 ± 0.1 µM and the IC50 ([5]; OVCAR3, without CEC derived exosomes) was 6.5 ± 1.1 µM.
For `CNCCC=C1c2ccccc2CCc2ccccc21` [nortriptyline], the “therapy of CIPN symptoms” value [6] is given as “ineffective”.
For `Cc1c(C)c2c(c(C)c1O)CC[C@@](C)(CCC[C@H](C)CCC[C@H](C)CCCC(C)C)O2` [α-tocopherol], the “antineuropathic effect on oxaliplatin-induced behavioral alterations” value [7] is given as “about 50%”.
